Measured values as given in paper PMC11451635, “A Broad Spectrum Lasso Peptide Antibiotic Targeting the Bacterial Ribosome” (Research Square, 2024).
Converted amounts (≈) assume the structure as drawn. “Also recorded” adds a separate entry of the source. Read-outs that look alike come from different tables or passages of the source. Where a SMILES comes first, the peptide text is derived from it. Bridges are numbered along the chain shown (N, C = ends).

Key:
[1] = test system: E. coli BW25113; test: Cell lysis assay (optical density); assay type: cell-based, Escherichia coli; details: exponential E. coli culture, OD600 over 6 h
Method: E. coli BW25113 was grown overnight in 5 ml MOPS minimal medium and diluted 1:100 in 3 ml of fresh medium in 14 ml culture tubes. Cells were grown for three to four hours to reach mid-exponential phase (OD600 0.4–0.6) and treated with 10xMIC of LAR (40 μg/ml) or colistin (2.5 to 5 μg/ml) in 1 ml culture at 37°C with agitation at 250 rpm. Cultures were sampled at various times, centrifuged at 10,000 xg for 3 min, and plated on MHA plates. The number of colony forming units (cfu) was determined after incubating plates for 20–24 hr at 37°C. A time-kill assay against A. baumannii C0286 was performed in MHB. For cell lysis assay, cultures were prepared as described above. Initial OD600 was adjusted to 0.15–0.2, and 98 μl of culture was added to a 96-well plate containing 2 μl of compound. The plates were incubated with orbital shaking at maximum speed with a Synergy Microplate Reader (Biotek), and OD600 was measured over 6 h. Experiments were performed in two to three biological replicates. For colistin in cell lysis assay, clumping of cells was observed after ≈2h, leading to a false increase in OD; therefore, data for colistin was not plotted after this period. The plate was manually mixed on a vortex, and the turbidity of colistin-treated wells was confirmed.

[2] = test system: M. smegmatis MC^2 155
[3] = test system: human erythrocytes; test: Haemolysis
[4] = test system: E. coli BW25113 ΔtolCΔbamB expressing various resistance genes; test: Cross-resistance with resistance mechanisms; details: mutations or enzymatic resistance mechanisms; Extended Data Fig. 10
[5] = test system: E. coli BW25113; test: Selection of spontaneous resistant mutants; assay type: cell-based, Escherichia coli; details: ~10^9 cfu on MOPS minimal agar, 37°C, 24–48 h
[6] = test system: common anaerobe components of the human microbiome; test: Activity against human gut microbiome bacteria; assay type: cell-based; details: BHI, anaerobic, 37 °C
Method: For MIC testing using human microbiota strains, the cultures were grown in BHI supplemented with L-cysteine (0.5g/L), Hemin (10mg/L), and Vitamin K (1mg/L) in anaerobic chambers (37 °C, 5% H2, 10% CO2, 85% N2). Candida albicans was cultivated in yeast nitrogen base (YNB) medium without amino acids (BD Difco).

[7] = test system: Pseudomonas aeruginosa PAO1
[8] = test system: A. baumannii C0286; test: Neutropenic mouse thigh-infection model
[9] = test system: E. coli BW25113 membrane; test: Membrane depolarization assay; assay type: cell-based, Escherichia coli; details: DiOC2(3) 30 μM, 60 min, room temperature, fluorescence
Method: Mid-exponential phase E. coli BW25113 culture (OD600 0.3–0.5) was mixed with […] (DiOC2(3), ThermoFisher Scienti c) dye at a nal concentration of 30 μM and 190 μL of cells were placed into wells of a 96-well black plate. A volume of 10 μl of test compounds or DMSO was added, mixed by pipetting, and fluorescence was measured for 60 min at room temperature using a Synergy Microplate Reader (Biotek) (lex/lem: 450/670 nm). Carbonyl cyanide m-chlorophenyl hydrazone (CCCP) served as a positive control.

[10] = test system: HEK293 cells; test: Cytotoxicity against human cells
[11] = test system: E. coli strain CA244 lacZ C1456T; test: Miscoding assay (lacZ premature stop codon readthrough); details: MOPS agar, X-gal 80 μg/ml, IPTG 250 μM; 60.7 μg LAR spotted, ~18 h, 37°C
[12] = test system: E. coli SQ110DTC; test: Selection of spontaneous rRNA resistant mutants
[13] = test system: E. coli; test: MIC under anaerobic conditions; assay type: cell-based, Escherichia coli; details: anaerobic vs aerobic
Method: (§1) MICs were determined using broth microdilution method in cation-adjusted Mueller-Hinton Broth (MHBII, BD Difco) following standard procedures unless stated otherwise. Mycobacteria susceptibility was tested in Middlebrook 7H9 medium supplemented with 10% OADC Enrichment (oleic acid, bovine albumin, dextrose, and catalase) (BD Difco). The compounds (2 to 4 μl) were mixed with diluted cultures (5–7 × 10^5 cfu/mL) in MHB (196 to 198 μL) in 96-well round-bottom plates, and 2-fold serial dilutions were made. Plates were incubated at 37°C for 18–22 h, and OD600 readings were taken on Synergy Microplate Reader (Biotek). MIC was determined to be the lowest concentration of antibiotics with no visible growth. For Mycobacterial cultures, the plates were read after two to three days. Susceptibility was also assessed in MOPS minimal medium with 0.4% glucose (M2106 Teknova) and RPMI-1640 medium. Serum effects were tested in MHB with 10% or 50% fetal bovine serum (Invitrogen) or human serum (Heat Inactivated, from human male AB plasma; Sigma-Aldrich). For anaerobic conditions, E. coli was incubated in BD GasPak™ EZ pouch systems. To adjust the pH of the media, 1M NaOH or 1N HCl was used.

[14] = test system: Lactobacillus plantarum GC4; test: MIC, gut bacteria; assay type: cell-based; details: column MHB; method: BHI + L-cysteine, hemin, vitamin K, anaerobic, 37 °C
Method: as §1
(§2) For MIC testing using human microbiota strains, the cultures were grown in BHI supplemented with L-cysteine (0.5g/L), Hemin (10mg/L), and Vitamin K (1mg/L) in anaerobic chambers (37 °C, 5% H2, 10% CO2, 85% N2). […]

[15] = test system: Bacteroides fragilis GC73; test: MIC, gut bacteria; assay type: cell-based; details: column MHB; method: BHI + L-cysteine, hemin, vitamin K, anaerobic, 37 °C
Method: as §1, §2

[16] = test system: B. subtilis 168; test: Selection of spontaneous resistant mutants; assay type: cell-based, Bacillus subtilis; details: ~10^9 cfu on Mueller-Hinton agar, 37°C, 24–48 h
[17] = test system: E coli BW25113 ΔbamB; details: 18–22 h

CC(C)[C@H](NC(=O)CNC(=O)[C@H](CCCNC(=N)N)NC(=O)CNC(=O)[C@H](Cc1ccccc1)NC(=O)[C@H](CCCCN)NC(=O)CNC(=O)[C@@H]1CC(=O)N[C@@H](CO)C(=O)N[C@@H](CCCCN)C(=O)N[C@@H](CCCCN)C(=O)N[C@@H](CO)C(=O)N[C@@H](CCCCN)C(=O)N2CCC[C@H]2C(=O)NCC(=O)N1)C(=O)N[C@@H](CCCCN)C(=O)N[C@@H](CCCNC(=N)N)C(=O)NCC(=O)O [LAR, lariocidin] (SKKSKPGDGKFGRGVKRG-OH; lactam N-8)
Effect on culture optical density (lysis) [1]: did not cause a decrease in the optical density of the culture below the initial point | MIC [2]: 1 to 2 µg/mL | MIC (text) [2]: 1 to 2 µg/mL | Hemolytic activity [3]: did not display hemolytic activity | Haemolysis ([3]; 500 μg/ml, human erythrocytes in PBS pH 7.4, 1 h, 37°C, 540 nm, Triton X-100 = 100%): <1% | Sensitivity to resistance mechanisms [4]: unaffected by common resistance mechanisms; also recorded: mostly insensitive to mutations or enzymatic resistance mechanisms | Frequency of resistant mutants [5]: ~ 10^−8 | Activity vs gut microbiome anaerobes [6]: no activity | MIC [7]: 64 to 128 µg/mL | Reduction in bacterial burden, blood ([8]; 50 mg kg^−1 i.p. at 1, 4, 8 and 20 h post-infection, 24 h, vs vehicle, n = 8 treated): 2 orders of magnitude | Reduction in bacterial burden, spleen ([8]; 50 mg kg^−1 i.p. at 1, 4, 8 and 20 h post-infection, 24 h, vs vehicle, n = 15 treated): 2 orders of magnitude | Reduction in bacterial burden, thigh ([8]; 50 mg kg^−1 i.p. at 1, 4, 8 and 20 h post-infection, 24 h, vs vehicle, n = 30 treated): 2 orders of magnitude | In vivo activity ([8]; mouse model of A. baumannii infection): potent in vivo activity | Survival ([8]; over 48 h post-infection, 50 mg kg^−1 i.p. x4): 100% | Appearance of treated mice ([8]; vs control mice): appeared much healthier than control mice | Membrane depolarization [9]: did not permeabilize or depolarize the bacterial membrane | Cytotoxicity against human cells [10]: no human cell toxicity; also recorded: did not display hemolytic activity or cytotoxicity against human cells | Miscoding / premature stop codon readthrough [11]: induces miscoding; also recorded: induces premature stop codon readthrough | Effect of selected rRNA substitutions on MIC ([12]; 16S rRNA resistance mutations, Extended Data Fig. 6a): modest effects | Frequency of resistant clones ([12]; MHB/agar, 64 μg/mL LAR (~4xMIC), 48 h, 37°C): ~ 2×10^−8 | Increase in MIC under anaerobic conditions [13]: 4-to-8 fold | MIC [14]: >256 µg/mL | MIC [15]: >256 µg/mL | Frequency of resistant mutants [16]: ~ 10^−8 | MIC ([17]; MHB, 37°C): 32 µg/mL (≈ 17.1 µM) | MIC ([17]; RPMI-1640, 37°C): 1 µg/mL (≈ 0.534 µM)
